Data taken from US8063225B2, “Tricyclic compound derivatives useful in the treatment of neoplastic diseases, inflammatory disorders and immunomodulatory disorders” (Chembridge Corporation, priority 2006, dated 2011).
pIC50: −log10 of the molar value.

What was measured:
IGF1R tyrosine kinase = molecular target: T1, IGF1R tyrosine kinase (Homo sapiens, UniProt P08069); test: IGF1R tyrosine kinase assay (Kinase-Glo ATP depletion or PT66/PT100 AlphaScreen); conditions: biochemical tyrosine kinase assay
T1 construct: 6×His- or GST-tagged kinase domain fragments of the corresponding RTKs expressed in baculovirus system; host or cells: baculovirus system
Description: (§1) To determine inhibition of several tyrosine kinases, such as IGF1R, InsR, Alk, TrkA and Jak2, kinase assays are conducted using either Kinase-Glo (Promega) or AlphaScreen (PerkinElmer) kinase assay platforms. The Kinase-Glo Luminescent Kinase Assay is a homogeneous method for measuring kinase activity by determining the amount of ATP remaining after a kinase reaction. The luminescent signal is proportional to the amount of ATP and inversely proportional to the amount of kinase activity. Tyrosine kinase PT66 AlphaScreen Assay is a high-sensitivity homogeneous, anti-phosphotyrosine antibody-mediated luminescent proximity method measuring, incorporation of phosphate in synthetic poly(Glu-Tyr) substrate. The kinase preparations used consist of purified recombinant, 6×His- or GST-tagged kinase domain fragments of the corresponding RTKs expressed in baculovirus system.
(§2) The IGF1R tyrosine kinase is assayed in Kinase-Glo ATP depletion assay using the synthetic polymer poly(Glu-Tyr, 4:1) (Sigma Chemicals) as a phosphoacceptor substrate. Each reaction mixture consists of a total volume of 10 μl and contains 40 ng of the enzyme, 5 μg of poly(Glu-Tyr), 10 μM of ATP and variable concentrations of test compounds. The mixtures also contain 50 mM Tris-HCl, pH 7.5; 5 mM MgCl2; 5 mM MnCl2; 2 mM DTT and 0.01% Tween 20. The reaction mixtures are incubated at 37° C. for 60 minutes and residual concentration of ATP in the mixture is determined by adding luciferase-containing Kinase-Glo (Promega) development reagent and counting luminescence levels using Fusion Universal Microplate Analyzer (PerkinElmer). Tested compounds are dissolved in dimethyl sulfoxide to a stock concentration of 10 mM and are typically evaluated in the assay at eight concentrations in 1 nM to 20 μM range, each in quadruplicate. […] IC50 values are derived by non-linear regression analysis using Prism 3.0 software (Graphpad Software). Other tyrosine kinases are assayed according to the same protocol after titrating amount of the enzyme to provide optimal signal-to-noise ratio and no more than 30% of total ATP consumption in the reaction conditions used.
(§3) The IGF1R tyrosine kinase is assayed in Phosphotyrosine (PT66 or PT 100) AlphaScreen chemiluminescent assay (PerkinElmer) according to the manufacturerer's recommendations. Each kinase reaction mixture consists of a total volume of 15 μl and contains 0.1-1 ng of the enzyme, 7 ng of biotinylated poly(Glu-Tyr) (Cis-Bio), 10 μM of ATP and variable concentrations of test compounds. The mixtures also contain 50 mM Tris-HCl, pH 7.5; 5 mM MgCl2; 5 mM MnCl2; 2 mM DTT and 0.01% Tween 20. The reaction mixtures are incubated at room temperature for 30 minutes. Ten (10) μl of the mixture of […] and donor beads (as supplied by the manufacturer) is then added to the reaction and the incubation is continued for an additional 60 minutes.

InsR = molecular target: T2, InsR (Homo sapiens, UniProt P06213); test: Tyrosine kinase assay (Kinase-Glo or AlphaScreen), InsR; conditions: biochemical tyrosine kinase assay
T2 construct: 6×His- or GST-tagged kinase domain fragments of the corresponding RTKs expressed in baculovirus system; host or cells: baculovirus system
Description: as §1, §2, §3

Alk = molecular target: T3, Alk (Homo sapiens, UniProt Q9UM73); test: Tyrosine kinase assay (Kinase-Glo or AlphaScreen), Alk; conditions: biochemical tyrosine kinase assay
T3 construct: 6×His- or GST-tagged kinase domain fragments of the corresponding RTKs expressed in baculovirus system; host or cells: baculovirus system
Description: as §1, §2, §3

Jak2 = molecular target: T4, Jak2 (Homo sapiens, UniProt O60674); test: Tyrosine kinase assay (Kinase-Glo or AlphaScreen), Jak2; conditions: biochemical tyrosine kinase assay
T4 construct: 6×His- or GST-tagged kinase domain fragments of the corresponding RTKs expressed in baculovirus system; host or cells: baculovirus system
Description: as §1, §2, §3

Ba/F3 = test: Cell proliferation inhibition, Cell Titer-Glo, Ba/F3; format: cell-based; conditions: Mus musculus, BaF3; cell proliferation assay, Ba/F3 cells
Text: (§4) IGF1R and other tyrosine kinase inhibitors can inhibit the proliferation of certain cancer cell lines indicating their possible therapeutic utility for treating the corresponding cancer types. Cancer cell lines of interest and control normal lines, including CHO, HEK293, BA/F3, COLO205, PC3, DU145, MCF7, Panc1, ACHN, Hep G2, H460, K562, TT, U87-MG, CAOV-3, SK-MEL5, Karpas 299 and human multiple myeloma cell lines H929, MM1s, MM1r, UTMC2, CPM2, KMS11, My5, KMS12PE, My7, JJN3, KMS18, U266, SKMM2, RPMI-8226 are plated in white, clear-bottomed 384-well cell culture plates at 2500-5000 cells per well and supplied with dilutions of tested compounds After a desired period of time (typically 3 days), the number of viable cells is quantitated by using Cell Titer-Glo Luminescent Cell Viability Assay (Promega), a cell proliferation assay system based on detection of total amount of ATP present as a measure of cell metabolic activity. The plated cells are mixed with the Cell Titer-Glo developing reagent and counted in a luminescence multiwell plate reader according to the standard manufacturer's protocol to generate IC50 curves for cell proliferation inhibition. Results are typically reported as percent of growth (% viability =(OD72h(compound)−ODday0))/(OD72h(no compound)−ODday0). Alternatively, viable cells are quantitated by using the conventional colorimetric MTT assay. The MTT assay is based on the cleavage of the yellow tetrazolium salt MTT to purple formazan crystal by metabolic active cells. The formazan is then solubilized, and the concentration determined by optical density at 570 nm. The cells plated and incubated with a compound as described above are supplemented with the solution of MTT and incubated for 2-3 hours. The growth medium is removed and dimethyl sulfoxide is added into each well to dissolve the formazan. The absorbance is measured on an ELISA plate reader with a test wavelength of 570 nm and a background subtraction wavelength of 630 nm to obtain sample signal (OD570-OD630). […] The results are reported in terms of IC50 value for a particular compound and a cell line in the standard 3-day proliferation assay using Cell Titer-Glo. […] The results are reported in terms of IC50 value for a particular compound and a cell line in the standard 3-day proliferation assay using MTT assay.

Karpas-299 = test: Cell proliferation inhibition, Cell Titer-Glo, Karpas-299; format: cell-based; conditions: Homo sapiens; cell proliferation assay, Karpas-299 cells
Text: as §4

K562 = test: Cell proliferation inhibition, Cell Titer-Glo, K562; format: cell-based; conditions: Homo sapiens; cell proliferation assay, K562 cells
Text: as §4

T2 sequence (P06213 1023-1298 limits assumed, species assumed): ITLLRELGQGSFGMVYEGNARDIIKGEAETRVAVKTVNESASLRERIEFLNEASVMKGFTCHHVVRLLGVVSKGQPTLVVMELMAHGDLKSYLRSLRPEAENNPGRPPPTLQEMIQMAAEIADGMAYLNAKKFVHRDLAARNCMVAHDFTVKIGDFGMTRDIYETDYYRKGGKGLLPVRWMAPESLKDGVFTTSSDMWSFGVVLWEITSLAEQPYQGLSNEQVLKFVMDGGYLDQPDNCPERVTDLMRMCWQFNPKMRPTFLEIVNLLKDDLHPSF
T1 sequence (P08069 999-1274 limits assumed): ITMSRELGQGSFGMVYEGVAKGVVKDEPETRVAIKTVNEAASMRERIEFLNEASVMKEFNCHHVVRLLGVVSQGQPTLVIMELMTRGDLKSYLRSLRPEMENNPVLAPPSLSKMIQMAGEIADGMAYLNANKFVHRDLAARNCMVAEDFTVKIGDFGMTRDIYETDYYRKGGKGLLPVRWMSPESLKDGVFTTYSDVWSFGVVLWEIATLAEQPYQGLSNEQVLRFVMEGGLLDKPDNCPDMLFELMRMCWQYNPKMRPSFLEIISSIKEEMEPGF
T4 sequence (O60674 849-1124 limits assumed, species assumed): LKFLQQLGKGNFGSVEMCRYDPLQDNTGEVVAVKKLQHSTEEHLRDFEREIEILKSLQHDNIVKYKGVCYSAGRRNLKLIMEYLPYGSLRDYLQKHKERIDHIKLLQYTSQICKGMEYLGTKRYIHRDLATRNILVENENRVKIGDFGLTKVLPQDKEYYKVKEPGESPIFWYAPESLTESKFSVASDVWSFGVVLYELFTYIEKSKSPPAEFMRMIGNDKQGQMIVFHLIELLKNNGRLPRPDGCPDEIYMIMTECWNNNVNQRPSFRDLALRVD
T3 sequence (Q9UM73 1116-1392 limits assumed, species assumed): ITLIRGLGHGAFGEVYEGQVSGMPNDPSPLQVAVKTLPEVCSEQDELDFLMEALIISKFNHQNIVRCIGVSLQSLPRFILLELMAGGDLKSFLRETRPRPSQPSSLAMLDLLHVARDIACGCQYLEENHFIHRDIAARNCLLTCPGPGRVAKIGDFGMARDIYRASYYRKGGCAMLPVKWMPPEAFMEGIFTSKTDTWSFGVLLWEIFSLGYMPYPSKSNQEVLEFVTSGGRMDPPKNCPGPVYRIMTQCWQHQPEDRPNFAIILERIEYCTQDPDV

Compound	pIC50 (IGF1R tyrosine kinase)	pIC50 (InsR)	pIC50 (Alk)	pIC50 (Jak2)	pIC50 (Ba/F3)	pIC50 (Karpas-299)	pIC50 (K562)
CC(C)CNCC(O)CNc1ccnc(O)c1-c1nc2cc3c(cc2[nH]1)C(=O)N(C1CCN(C)CC1)C3=O (stereo not shown) [compound 66]	< 4.82	< 4.82	< 4.82	< 4.82	< 4.82	< 4.82	< 4.82
O=C1c2cc3nc(-c4c(NC[C@@H](O)c5cccc(Cl)c5)cc[nH]c4=O)[nH]c3cc2C(=O)N1CCO [compound 43]	5.30 to 6.30	5.30 to 6.30	< 4.82	5.30 to 6.30	< 4.82	4.82 to 5.30	4.82 to 5.30
CN1CCC(N2C(=O)c3cc4nc(-c5c(NC[C@@H](O)COc6cccc7[nH]ccc67)ccnc5O)[nH]c4cc3C2=O)CC1 [compound 101]	> 6.30	> 6.30	> 6.30	5.30 to 6.30	< 4.82	< 4.82	< 4.82
Cc1cccc(OCC(O)CNc2cc[nH]c(=O)c2-c2nc3cc4c(cc3[nH]2)C(=O)N(C2CCN(C)CC2)C4=O)c1 (stereo not shown) [compound 105]	5.30 to 6.30	5.30 to 6.30	4.82 to 5.30	5.30 to 6.30	< 4.82	< 4.82	4.82 to 5.30
Cc1ccc(OC[C@H](O)CNc2ccnc(O)c2-c2nc3cc4c(cc3[nH]2)C(=O)N(C2CCN(C)CC2)C4=O)cn1 [compound 69]	5.30 to 6.30	5.30 to 6.30	4.82 to 5.30	5.30 to 6.30	< 4.82	< 4.82	< 4.82
Cc1ccc(OC[C@H](O)CNc2cc[nH]c(=O)c2-c2nc3cc4c(cc3[nH]2)C(=O)N(C2CCN(C)CC2)C4=O)c(C(C)(C)C)c1 [compound 80]	5.30 to 6.30	4.82 to 5.30	5.30 to 6.30	4.82 to 5.30	< 4.82	4.82 to 5.30	4.82 to 5.30
CN1CCC(N2C(=O)c3cc4nc(-c5c(NC[C@@H](O)COc6ccc7c(c6)OCO7)ccnc5O)[nH]c4cc3C2=O)CC1 [compound 78]	> 6.30	5.30 to 6.30	5.30 to 6.30	5.30 to 6.30	< 4.82	4.82 to 5.30	4.82 to 5.30
COc1cc(F)ccc1OC[C@H](O)CNc1ccnc(O)c1-c1nc2cc3c(cc2[nH]1)C(=O)N(C1CCN(C)CC1)C3=O [compound 57]	5.30 to 6.30	5.30 to 6.30	5.30 to 6.30	5.30 to 6.30	5.30 to 6.30	4.82 to 5.30	4.82 to 5.30
Cc1ccc(Cl)cc1OC[C@@H](O)CNc1ccnc(O)c1-c1nc2cc3c(cc2[nH]1)C(=O)N(C1CCN(C)CC1)C3=O [compound 56]	5.30 to 6.30	5.30 to 6.30	5.30 to 6.30	5.30 to 6.30	5.30 to 6.30	5.30 to 6.30	5.30 to 6.30
Cc1ccc(OC[C@H](O)CNc2ccnc(O)c2-c2nc3cc4c(cc3[nH]2)C(=O)N(C2CCN(C)CC2)C4=O)c(C)n1 [compound 68]	> 6.30	5.30 to 6.30	4.82 to 5.30	5.30 to 6.30	< 4.82	< 4.82	< 4.82
COc1ccc2c(c1)cc(C)n2C[C@H](O)CNc1ccnc(O)c1-c1nc2cc3c(cc2[nH]1)C(=O)N(C1CCN(C)CC1)C3=O [compound 100]	5.30 to 6.30	5.30 to 6.30	> 6.30	5.30 to 6.30	< 4.82	4.82 to 5.30	4.82 to 5.30
CN1CCC(N2C(=O)c3cc4nc(-c5c(NC[C@@H](O)Cn6ccc7c(C#N)cccc76)cc[nH]c5=O)[nH]c4cc3C2=O)CC1 [compound 112]	5.30 to 6.30	5.30 to 6.30	5.30 to 6.30	5.30 to 6.30	4.82 to 5.30	5.30 to 6.30	4.82 to 5.30
COc1ccc(OC[C@H](O)CNc2cc[nH]c(=O)c2-c2nc3c(C)c4c(cc3[nH]2)C(=O)N(C2CCN(C)CC2)C4=O)c(C)c1Cl [compound 138]	> 6.30	> 6.30	5.30 to 6.30	5.30 to 6.30	4.82 to 5.30	5.30 to 6.30	< 4.82
CN(C)CC(C)(C)CN1C(=O)c2cc3nc(-c4c(NCC(O)COc5cccc(Cl)c5)ccnc4O)[nH]c3cc2C1=O (stereo not shown) [compound 61]	5.30 to 6.30	4.82 to 5.30	< 4.82	4.82 to 5.30	< 4.82	< 4.82	< 4.82
CN(C)CCN1CCC(N2C(=O)c3cc4nc(-c5c(NC[C@@H](O)COc6c(F)ccc(Cl)c6F)cc[nH]c5=O)[nH]c4cc3C2=O)CC1 [compound 128]	> 6.30	5.30 to 6.30	5.30 to 6.30	5.30 to 6.30	< 4.82	< 4.82	< 4.82
Cc1ccc(Cl)cc1OC[C@H](O)CNc1ccnc(O)c1-c1nc2cc3c(cc2[nH]1)C(=O)N(C1CCN(C)CC1)C3=O [compound 55]	> 6.30	5.30 to 6.30	5.30 to 6.30	5.30 to 6.30	5.30 to 6.30	5.30 to 6.30	5.30 to 6.30
O=C1c2cc3nc(-c4c(NC[C@@H](O)c5cccc(Cl)c5)ccnc4O)[nH]c3cc2C(=O)N1CCN1CCOCC1 [compound 8]	5.30 to 6.30	5.30 to 6.30	5.30 to 6.30	5.30 to 6.30	< 4.82	< 4.82	< 4.82
CC(Nc1cc[nH]c(=O)c1-c1nc2cc3c(cc2[nH]1)C(=O)N(C1CCN(C)CC1)C3=O)C1COc2ccccc2O1 (stereo not shown) [compound 40]	4.82 to 5.30	4.82 to 5.30	4.82 to 5.30	5.30 to 6.30	5.30 to 6.30	4.82 to 5.30	4.82 to 5.30
CN1CCC(N2C(=O)c3cc4nc(-c5c(NNC(=O)C(O)c6ccccc6)ccnc5O)[nH]c4cc3C2=O)CC1 (stereo not shown) [compound 67]	< 4.82	4.82 to 5.30	4.82 to 5.30	5.30 to 6.30	< 4.82	< 4.82	< 4.82
